Results: patent US20040006070A1, “Intraspinal continuous infusion of midazolam hydrochloride for the treatment of pain” (priority 2002, published 2004)
Where a name gives a salt, the structure may show the parent alone.

Assay: Bloodwork: complete blood count, electrolytes, extended blood chemistry
Type: in vivo, sheep
Conditions: for Total Bili: ref 0.14-0.32; for Creatinine: ref 1-2.7; for Albumin: ref 2.4-3; for K+: ref 3.9-5.4; for Phos: ref 5-7.3; for Total Prot: ref 6-7.9
Method: Indirect blood pressure, pulse recording, pain testing (mechanical stimulus device, cold and warm water baths see description in procedure) and weight were taken on days 1, 3, 7, 15, 22, 29, 36, and 43. Venous blood samples (15 ml drawn from the jugular vein with Vacutainer brand blood collection tubes) for complete blood count, electrolytes, and extended blood chemistry were drawn on days 1, 15, and 43 (mild procedure only light hand restraint necessary).

Cc1ncc2n1-c1ccc(Cl)cc1C(c1ccccc1F)=NC2 [Midazolam, midazolam hydrochloride]
Glucose (sheep #91, 15 mg/day, Day 1): 77 mg/dL | Hct (sheep #91, 15 mg/day, Day 1): 29.2% | Hgb (sheep #91, 15 mg/day, Day 1): 9.84 g/dL | MCH (sheep #91, 15 mg/day, Day 1): 10.7 pg | MCHC (sheep #91, 15 mg/day, Day 1): 33.7 g/dL | MCV (sheep #91, 15 mg/day, Day 1): 31.8 fL | Na+ (sheep #91, 15 mg/day, Day 1): 149 mEq/l | Platlet Count (sheep #91, 15 mg/day, Day 1): 996000 µL⁻¹ | RBC (sheep #91, 15 mg/day, Day 1): 9.18e+06 µL⁻¹ | WBC (sheep #91, 15 mg/day, Day 1): 7090 µL⁻¹ | Total Bili (sheep #91, 15 mg/day, Day 1): 0.1 mg/dL | Creatinine (sheep #91, 15 mg/day, Day 1): 1.6 mg/dL | Albumin (sheep #91, 15 mg/day, Day 1): 3.3 g/dL | K+ (sheep #91, 15 mg/day, Day 1): 4.9 mEq/l | Phos (sheep #91, 15 mg/day, Day 1): 6.2 mg/dL | Total Prot (sheep #91, 15 mg/day, Day 1): 6.1 g/dL | ALT (sheep #91, 15 mg/day, Day 15): 10 U/L | AST (sheep #91, 15 mg/day, Day 15): 50 U/L | Alk Phos (sheep #91, 15 mg/day, Day 15): 162 U/L | BUN (sheep #91, 15 mg/day, Day 15): 13 mg/dL | CPK (sheep #91, 15 mg/day, Day 15): 56 U/L | Cholesterol (sheep #91, 15 mg/day, Day 15): 56 mg/dL | Differential Count: Eosin (sheep #91, 15 mg/day, Day 15): 12% | Differential Count: Lymph (sheep #91, 15 mg/day, Day 15): 44% | Differential Count: Seg (sheep #91, 15 mg/day, Day 15): 44% | Gamma GT (sheep #91, 15 mg/day, Day 15): 60 U/L | Glucose (sheep #91, 15 mg/day, Day 15): 83 mg/dL | Hct (sheep #91, 15 mg/day, Day 15): 31.8% | Hgb (sheep #91, 15 mg/day, Day 15): 10.8 g/dL | MCH (sheep #91, 15 mg/day, Day 15): 10.8 pg | MCHC (sheep #91, 15 mg/day, Day 15): 34.0 g/dL | MCV (sheep #91, 15 mg/day, Day 15): 31.8 fL | Na+ (sheep #91, 15 mg/day, Day 15): 148 mEq/l | Platlet Count (sheep #91, 15 mg/day, Day 15): 848000 µL⁻¹ | RBC (sheep #91, 15 mg/day, Day 15): 1e+07 µL⁻¹ | WBC (sheep #91, 15 mg/day, Day 15): 5130 µL⁻¹ | Total Bili (sheep #91, 15 mg/day, Day 15): 0.0 mg/dL | Creatinine (sheep #91, 15 mg/day, Day 15): 1.3 mg/dL | Albumin (sheep #91, 15 mg/day, Day 15): 3.3 g/dL | K+ (sheep #91, 15 mg/day, Day 15): 4.4 mEq/l | Phos (sheep #91, 15 mg/day, Day 15): 6.1 mg/dL | Total Prot (sheep #91, 15 mg/day, Day 15): 6.2 g/dL | ALT (sheep #91, 15 mg/day, Day 43): 9 U/L | AST (sheep #91, 15 mg/day, Day 43): 63 U/L | Alk Phos (sheep #91, 15 mg/day, Day 43): 174 U/L | BUN (sheep #91, 15 mg/day, Day 43): 14 mg/dL | CPK (sheep #91, 15 mg/day, Day 43): 54 U/L | Cholesterol (sheep #91, 15 mg/day, Day 43): 66 mg/dL | Differential Count: Eosin (sheep #91, 15 mg/day, Day 43): 5% | Differential Count: Lymph (sheep #91, 15 mg/day, Day 43): 41% | Differential Count: Mono (sheep #91, 15 mg/day, Day 43): 2% | Differential Count: Seg (sheep #91, 15 mg/day, Day 43): 52% | Gamma GT (sheep #91, 15 mg/day, Day 43): 58 U/L | Glucose (sheep #91, 15 mg/day, Day 43): 81 mg/dL | Hct (sheep #91, 15 mg/day, Day 43): 36.3% | Hgb (sheep #91, 15 mg/day, Day 43): 12.2 g/dL | MCH (sheep #91, 15 mg/day, Day 43): 10.4 pg | MCHC (sheep #91, 15 mg/day, Day 43): 33.6 g/dL | MCV (sheep #91, 15 mg/day, Day 43): 30.9 fL | Na+ (sheep #91, 15 mg/day, Day 43): 147 mEq/l | Platlet Count (sheep #91, 15 mg/day, Day 43): 805000 µL⁻¹ | RBC (sheep #91, 15 mg/day, Day 43): 1.18e+07 µL⁻¹ | WBC (sheep #91, 15 mg/day, Day 43): 5330 µL⁻¹ | Total Bili (sheep #91, 15 mg/day, Day 43): 0.1 mg/dL | Creatinine (sheep #91, 15 mg/day, Day 43): 1.5 mg/dL | Albumin (sheep #91, 15 mg/day, Day 43): 3.6 g/dL | K+ (sheep #91, 15 mg/day, Day 43): 4.6 mEq/l | Phos (sheep #91, 15 mg/day, Day 43): 7.3 mg/dL | Total Prot (sheep #91, 15 mg/day, Day 43): 6.4 g/dL | ALT (sheep #457, 15 mg/day, Day 1): 10 U/L | AST (sheep #457, 15 mg/day, Day 1): 85 U/L | Alk Phos (sheep #457, 15 mg/day, Day 1): 43 U/L | BUN (sheep #457, 15 mg/day, Day 1): 14 mg/dL | CPK (sheep #457, 15 mg/day, Day 1): 122 U/L | Cholesterol (sheep #457, 15 mg/day, Day 1): 59 mg/dL | Differential Count: Eosin (sheep #457, 15 mg/day, Day 1): 1% | Differential Count: Lymph (sheep #457, 15 mg/day, Day 1): 26% | Differential Count: Seg (sheep #457, 15 mg/day, Day 1): 73% | Gamma GT (sheep #457, 15 mg/day, Day 1): 59 U/L | Glucose (sheep #457, 15 mg/day, Day 1): 91 mg/dL | Hct (sheep #457, 15 mg/day, Day 1): 34.4% | Hgb (sheep #457, 15 mg/day, Day 1): 10.5 g/dL | MCH (sheep #457, 15 mg/day, Day 1): 10.2 pg | MCHC (sheep #457, 15 mg/day, Day 1): 30.5 g/dL | MCV (sheep #457, 15 mg/day, Day 1): 33.4 fL | Na+ (sheep #457, 15 mg/day, Day 1): 147 mEq/l | Platlet Count (sheep #457, 15 mg/day, Day 1): 276000 µL⁻¹ | RBC (sheep #457, 15 mg/day, Day 1): 8.68e+06 µL⁻¹ | WBC (sheep #457, 15 mg/day, Day 1): 11900 µL⁻¹ | Total Bili (sheep #457, 15 mg/day, Day 1): 0.1 mg/dL | Creatinine (sheep #457, 15 mg/day, Day 1): 1.1 mg/dL | Albumin (sheep #457, 15 mg/day, Day 1): 2.8 g/dL | K+ (sheep #457, 15 mg/day, Day 1): 4.4 mEq/l | Phos (sheep #457, 15 mg/day, Day 1): 6.2 mg/dL | Total Prot (sheep #457, 15 mg/day, Day 1): 5.0 g/dL | ALT (sheep #457, 15 mg/day, Day 15): 14 U/L | AST (sheep #457, 15 mg/day, Day 15): 55 U/L | Alk Phos (sheep #457, 15 mg/day, Day 15): 93 U/L | BUN (sheep #457, 15 mg/day, Day 15): 20 mg/dL | CPK (sheep #457, 15 mg/day, Day 15): 73 U/L | Cholesterol (sheep #457, 15 mg/day, Day 15): 65 mg/dL | Differential Count: Lymph (sheep #457, 15 mg/day, Day 15): 71% | Differential Count: Mono (sheep #457, 15 mg/day, Day 15): 3% | Differential Count: Seg (sheep #457, 15 mg/day, Day 15): 24% | Gamma GT (sheep #457, 15 mg/day, Day 15): 72 U/L | Glucose (sheep #457, 15 mg/day, Day 15): 60 mg/dL | Hct (sheep #457, 15 mg/day, Day 15): 35.4% | Hgb (sheep #457, 15 mg/day, Day 15): 10.9 g/dL | MCH (sheep #457, 15 mg/day, Day 15): 10.6 pg | MCHC (sheep #457, 15 mg/day, Day 15): 30.8 g/dL | MCV (sheep #457, 15 mg/day, Day 15): 34.4 fL | Na+ (sheep #457, 15 mg/day, Day 15): 150 mEq/l | Platlet Count (sheep #457, 15 mg/day, Day 15): 45000 µL⁻¹ | RBC (sheep #457, 15 mg/day, Day 15): 8.72e+06 µL⁻¹ | WBC (sheep #457, 15 mg/day, Day 15): 15400 µL⁻¹ | Total Bili (sheep #457, 15 mg/day, Day 15): 0.1 mg/dL | Creatinine (sheep #457, 15 mg/day, Day 15): 1.1 mg/dL | Albumin (sheep #457, 15 mg/day, Day 15): 3.3 g/dL | K+ (sheep #457, 15 mg/day, Day 15): 4.4 mEq/l | Phos (sheep #457, 15 mg/day, Day 15): 4.7 mg/dL | Total Prot (sheep #457, 15 mg/day, Day 15): 5.9 g/dL | ALT (sheep #457, 15 mg/day, Day 43): 12 U/L | AST (sheep #457, 15 mg/day, Day 43): 69 U/L | Alk Phos (sheep #457, 15 mg/day, Day 43): 105 U/L | BUN (sheep #457, 15 mg/day, Day 43): 15 mg/dL | CPK (sheep #457, 15 mg/day, Day 43): 51 U/L | Cholesterol (sheep #457, 15 mg/day, Day 43): 88 mg/dL | Differential Count: Eosin (sheep #457, 15 mg/day, Day 43): 7% | Differential Count: Lymph (sheep #457, 15 mg/day, Day 43): 68% | Differential Count: Mono (sheep #457, 15 mg/day, Day 43): 2% | Differential Count: Seg (sheep #457, 15 mg/day, Day 43): 23% | Gamma GT (sheep #457, 15 mg/day, Day 43): 61 U/L | Glucose (sheep #457, 15 mg/day, Day 43): 67 mg/dL | Hct (sheep #457, 15 mg/day, Day 43): 40.4% | Hgb (sheep #457, 15 mg/day, Day 43): 12.6 g/dL | MCH (sheep #457, 15 mg/day, Day 43): 11.5 pg | MCHC (sheep #457, 15 mg/day, Day 43): 31.2 g/dL | MCV (sheep #457, 15 mg/day, Day 43): 33.7 fL | Na+ (sheep #457, 15 mg/day, Day 43): 145 mEq/l | RBC (sheep #457, 15 mg/day, Day 43): 1.098e+07 µL⁻¹ | WBC (sheep #457, 15 mg/day, Day 43): 11200 µL⁻¹ | Total Bili (sheep #457, 15 mg/day, Day 43): 0.1 mg/dL | Creatinine (sheep #457, 15 mg/day, Day 43): 1.4 mg/dL | Albumin (sheep #457, 15 mg/day, Day 43): 3.3 g/dL | K+ (sheep #457, 15 mg/day, Day 43): 4.9 mEq/l | Phos (sheep #457, 15 mg/day, Day 43): 5.9 mg/dL | Total Prot (sheep #457, 15 mg/day, Day 43): 5.7 g/dL | ALT (sheep #473, 3 mg/day, Day 1): 22 U/L
